From patent US8119795B2, “Triazole derivatives II” (Merck Patent GmbH, priority 2006, dated 2012)

Target: T1, Recombinant human HSP90α (Homo sapiens, UniProt P07900)
T1 construct: host or cells: E. coli
Test: HSP90 radioligand filter binding test ([3H]17AAG competition)
Details: [3H]17AAG 0.08 μM, HSP90 1.5 μg/assay, 22° C., 30 min; read-out: IC50* (HSP90 inhibition)
Procedure: Test Method for the Measurement of HSP90 Inhibitors
In the specific case, a radioligand filter binding test is used. The radioligand used here is tritium-labelled 17-allylaminogeldanamycin, [3H]17AAG. This filter binding test allows a targeted search for inhibitors which interfere with the ATP binding site.
Recombinant human HSP90α (E. coli expressed, 95% purity);
HEPES filter buffer (50 mM HEPES, pH 7.0, 5 mM MgCl2, BSA 0.01%)
Multiscreen F B (1 μm) filter plate (Millipore, MAFBNOB 50).
The 96-well microtitre filter plates are firstly irrigated and coated with 0.1% of polyethylenimine.
The test is carried out under the following conditions:
Reaction temperature 22° C.
Reaction time: 30 min., shaking at 800 rpm
50 mM HEPES HCl, pH 7.0, 5 mM MgCl2, 0.01% (w/v) BSA
At the end of the reaction, the supernatant in the filter plate is removed by suction with the aid of a vacuum manifold (Multiscreen Separation System, Millipore), and the filter is washed twice.
The filter plates are then measured in a beta counter (Microbeta, Wallac) with scintillator (Microscint 20, Packard).
“% of control” is determined from the “counts per minutes” values and the IC50 value of a compound is calculated therefrom.

Compound	IC50 [nM]
CN(Cc1ccco1)C(=O)c1cc(-c2nnc(O)n2-c2cccc(F)c2)c(O)cc1O [Compound A59a, 5-{2,4-Dihydroxy-5-[N-(furan-2-ylmethyl)-N-methylaminocarbonyl]phenyl}-4-(3-fluorophenyl)-3-hydroxy-4H-1,2,4-triazole]	10 to 1000
CCc1cccc(-n2c(O)nnc2-c2cc(C(=O)N(C)Cc3ccco3)c(O)cc2O)c1 [Compound A59b, 5-{2,4-Dihydroxy-5-[N-(furan-2-ylmethyl)-N-methylaminocarbonyl]phenyl}-4-(3-ethylphenyl)-3-hydroxy-4H-1,2,4-triazole]	10 to 1000
Cc1ccccc1-n1c(-c2cc(C(=O)N(C)Cc3cccc(OCCN4CCOCC4)c3)c(O)cc2O)n[nH]c1=O [Compound A116c, 2,4-Dihydroxy-N-methyl-N-[3-(2-morpholin-4-ylethoxy)benzyl]-5-(5-oxo-4-o-tolyl-4,5-dihydro-1H-1,2,4-triazol-3-yl)benzamide]	1000 to 10000
CN(Cc1ccco1)C(=O)c1cc(-c2nnc(O)n2-c2ccccc2Cl)c(O)cc1O [Compound A58, 5-{2,4-Dihydroxy-5-[N-(furan-2-ylmethyl)-N-methylaminocarbonyl]phenyl}-4-(2-chlorophenyl)-3-hydroxy-4H-1,2,4-triazole]	10 to 1000
CN(Cc1ccco1)C(=O)c1cc(-c2nnc(O)n2-c2ccccc2)c(O)cc1O [Compound A57a, 5-{2,4-Dihydroxy-5-[N-(furan-2-ylmethyl)-N-methylaminocarbonyl]phenyl}-4-phenyl-3-hydroxy-4H-1,2,4-triazole]	10 to 1000
CN(Cc1ccco1)C(=O)c1cc(-c2nnc(O)n2-c2ccc(Cl)cc2)c(O)cc1O [Compound A58c, 5-{2,4-Dihydroxy-5-[N-(furan-2-ylmethyl)-N-methylaminocarbonyl]phenyl}-4-(4-chlorophenyl)-3-hydroxy-4H-1,2,4-triazole]	10 to 1000
CCc1ccccc1-n1c(O)nnc1-c1cc(C(=O)N(C)Cc2ccco2)c(O)cc1O [Compound A62c, 5-{2,4-Dihydroxy-5-[N-(furan-2-ylmethyl)-N-methylaminocarbonyl]phenyl}-4-(2-ethylphenyl)-3-hydroxy-4H-1,2,4-triazole]	10 to 1000
CN(Cc1ccco1)C(=O)c1cc(-c2nnc(O)n2-c2cc(Cl)cc(Cl)c2)c(O)cc1O [Compound A58b, 5-{2,4-Dihydroxy-5-[N-(furan-2-ylmethyl)-N-methylaminocarbonyl]phenyl}-4-(3,5-dichlorophenyl)-3-hydroxy-4H-1,2,4-triazole]	10 to 1000
CN(Cc1ccco1)C(=O)c1cc(-c2nnc(O)n2-c2cccc(Cl)c2)c(O)cc1O [Compound A58a, 5-{2,4-Dihydroxy-5-[N-(furan-2-ylmethyl)-N-methylaminocarbonyl]phenyl}-4-(3-chlorophenyl)-3-hydroxy-4H-1,2,4-triazole]	10 to 1000
COc1cccc(-n2c(O)nnc2-c2cc(C(=O)N(C)Cc3ccco3)c(O)cc2O)c1 [Compound A62b, 5-{2,4-Dihydroxy-5-[N-(furan-2-ylmethyl)-N-methylaminocarbonyl]phenyl}-4-(3-methoxyphenyl)-3-hydroxy-4H-1,2,4-triazole]	10 to 1000
Cc1cccc(-n2c(O)nnc2-c2cc(C(=O)N(C)Cc3ccco3)c(O)cc2O)c1 [Compound A57b, 5-{2,4-Dihydroxy-5-[N-(furan-2-ylmethyl)-N-methylaminocarbonyl]phenyl}-4-(3-methylphenyl)-3-hydroxy-4H-1,2,4-triazole]	10 to 1000

Further lines, results first:

IC50 [nM]	Compound
10 to 1000	Cc1ccccc1-n1c(O)nnc1-c1cc(C(=O)N(C)Cc2cccc(F)c2)c(O)cc1O [Compound A15, 5-{2,4-Dihydroxy-5-[N-(3-fluorobenzyl)-N-methylaminocarbonyl]phenyl}-4-(2-methylphenyl)-3-hydroxy-4H-1,2,4-triazole]
10 to 1000	Cc1ccccc1-n1c(O)nnc1-c1cc(C(=O)N(C)Cc2ccc(F)cc2)c(O)cc1O [Compound A12, 5-{2,4-Dihydroxy-5-[N-(4-fluorobenzyl)-N-methylaminocarbonyl]phenyl}-4-(2-methylphenyl)-3-hydroxy-4H-1,2,4-triazole]
10 to 1000	COc1cc(O)c(-c2nnc(O)n2-c2ccccc2C)cc1C(=O)N(C)Cc1ccccc1 [Compound A116a, 5-[2-Hydroxy-4-methoxy-5-(N-benzyl-N-methylaminocarbonyl)phenyl]-4-(2-methylphenyl)-3-hydroxy-4H-1,2,4-triazole]
10 to 1000	COc1ccc(Cl)cc1CN(C)C(=O)c1cc(-c2nnc(O)n2-c2ccccc2C)c(O)cc1O [Compound A51, 5-{2,4-Dihydroxy-5-[N-(3-chloro-6-methoxybenzyl)-N-methylaminocarbonyl]phenyl}-4-(2-methylphenyl)-3-hydroxy-4H-1,2,4-triazole]
10 to 1000	Cc1ccccc1-n1c(O)nnc1-c1cc(C(=O)N(C)Cc2ccco2)c(O)cc1O [Compound A57, 5-{2,4-Dihydroxy-5-[N-(furan-2-ylmethyl)-N-methylaminocarbonyl]phenyl}-4-(2-methylphenyl)-3-hydroxy-4H-1,2,4-triazole]
10 to 1000	Cc1ccccc1-n1c(O)nnc1-c1cc(C(=O)N(C)Cc2ccccc2F)c(O)cc1O [Compound A9, 5-{2,4-Dihydroxy-5-[N-(2-fluorobenzyl)-N-methylaminocarbonyl]phenyl}-4-(2-methylphenyl)-3-hydroxy-4H-1,2,4-triazole]
10 to 1000	Cc1ccccc1-n1c(O)nnc1-c1cc(C(=O)N(C)Cc2ccccc2Cl)c(O)cc1O [Compound A27, 5-{2,4-Dihydroxy-5-[N-(2-chlorobenzyl)-N-methylaminocarbonyl]phenyl}-4-(2-methylphenyl)-3-hydroxy-4H-1,2,4-triazole]
10 to 1000	Cc1ccccc1-n1c(O)nnc1-c1cc(C(=O)N(C)Cc2cccc(Cl)c2)c(O)cc1O [Compound A24, 5-{2,4-Dihydroxy-5-[N-(3-chlorobenzyl)-N-methylaminocarbonyl]phenyl}-4-(2-methylphenyl)-3-hydroxy-4H-1,2,4-triazole]
10 to 1000	COc1cccc(CN(C)C(=O)c2cc(-c3nnc(O)n3-c3ccccc3C)c(O)cc2O)c1 [Compound A6a, 5-{2,4-Dihydroxy-5-[N-(3-methoxybenzyl)-N-methylaminocarbonyl]phenyl}-4-(2-methylphenyl)-3-hydroxy-4H-1,2,4-triazole]
